Patent US11840686B2, “Modulation of prekallikrein (PKK) expression” (Ionis Pharmaceuticals, Inc., priority 2013, dated 2023)
Strand notation (5' to 3'): a small letter for the sugar, then the base; units joined by * are phosphorothioate-linked, units joined directly phosphodiester-linked; [ ] holds rarer units or linkages, { } end groups; capitals alone tell only the bases. e = 2'-O-(2-methoxyethyl) (MOE); [5mC] = 5-methylcytosine; d = 2'-deoxy (DNA)

What was measured:
human PKK mRNA [1] = test: Dose-dependent antisense inhibition of human PKK in HepaRG cells, 0.19-5.00 uM (Example 5); format: cell-based; details: for percent inhibition of PKK mRNA, 0.19 μM: 0.19 μM antisense oligonucleotide; for percent inhibition of PKK mRNA, 0.56 μM: 0.56 μM antisense oligonucleotide; for percent inhibition of PKK mRNA, 1.67 μM: 1.67 μM antisense oligonucleotide; for percent inhibition of PKK mRNA, 5.00 μM: 5.00 μM antisense oligonucleotide
Protocol: Cells were plated at a density of 20,000 cells per well and transfected using electroporation with 0.19 μM, 0.56 μM, 1.67 μM, and 5.00 μM concentrations of antisense oligonucleotide. After a treatment period of approximately 16 hours, RNA was isolated from the cells and PKK mRNA levels were measured by quantitative real-time PCR. Human PKK primer probe set RTS3454 was used to measure mRNA levels. PKK mRNA levels were adjusted according to total RNA content, as measured by RIBOGREEN®. The antisense oligonucleotides were tested in a series of experiments that had similar culture conditions.
The half maximal inhibitory concentration (IC50) of each oligonucleotide is also presented.

human PKK mRNA [2] = test: Antisense inhibition of human PKK mRNA in HepaRG cells, 5,000 nM (Example 2); format: cell-based
Method in brief: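 HepaRG cells (20,000/well) electroporated with 5,000 nM MOE gapmer (phosphorothioate backbone, 5-methylcytosines) and harvested after ~24 h. PKK mRNA measured by qRT-PCR with primer probe set RTS3454, normalized to RIBOGREEN total RNA; percent inhibition versus untreated cells.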

[3] = HepaRG cells, electroporation, approximately 16 hours, Table 35
[4] = HepaRG cells, electroporation, approximately 16 hours, Table 41
[5] = 4 point dose response, HepaRG cells, Table 41
[6] = human PKK mRNA in HepaRG cells, 5-10-5 gapmers, Table 14
[7] = HepaRG cells, electroporation, approximately 16 hours, Table 39
[8] = 4 point dose response, HepaRG cells, Table 39
[9] = HepaRG cells, electroporation, approximately 16 hours, Table 37
[10] = 4 point dose response, HepaRG cells, Table 37
[11] = Table 13, human PKK mRNA in HepaRG cells, 5-10-5 gapmers
[12] = HepaRG cells, electroporation, approximately 16 hours, Table 38
[13] = 4 point dose response, HepaRG cells, Table 38
[14] = HepaRG cells, electroporation, approximately 16 hours, Table 36
[15] = 4 point dose response, HepaRG cells, Table 36
[16] = Table 34, HepaRG, electroporation, ~16 h

547602 (antisense eT*e[5mC]*eA*e[5mC]*eT*dG*dT*dA*d[5mC]*d[5mC]*dT*dA*dT*dA*dA*e[5mC]*eT*e[5mC]*eT*eA) [compound 547602]
percent inhibition of PKK at 0.19 μM (human PKK mRNA [1]; [3]): 18%
percent inhibition of PKK at 0.56 μM (human PKK mRNA [1]; [3]): 53%
percent inhibition of PKK at 1.67 μM (human PKK mRNA [1]; [3]): 92%
percent inhibition of PKK at 5.00 μM (human PKK mRNA [1]; [3]): 87%
percent inhibition of PKK at 5.00 μM (human PKK mRNA [1]; [4]): 93%
percent inhibition of PKK at 0.19 0μM (human PKK mRNA [1]; [4]): 1%
percent inhibition of PKK at 0.56 0μM (human PKK mRNA [1]; [4]): 9%
percent inhibition of PKK at 1.67 1μM (human PKK mRNA [1]; [4]): 52%
IC50 (human PKK mRNA [1]; 4 point dose response, HepaRG cells, Table 35): 500 nM
IC50 (human PKK mRNA [1]; [5]): 1400 nM
% inhibition (human PKK mRNA [2]; [6]): 93%

547366 (eG*eG*eA*eG*eT*dG*dA*dG*dA*dA*d[5mC]*d[5mC]*d[5mC]*dT*dG*eG*e[5mC]*eA*eA*e[5mC]; antisense) [compound 547366]
percent inhibition of PKK at 0.19 μM (human PKK mRNA [1]; [7]): 0%
percent inhibition of PKK at 0.56 μM (human PKK mRNA [1]; [7]): 45%
percent inhibition of PKK at 1.67 μM (human PKK mRNA [1]; [7]): 68%
percent inhibition of PKK at 5.00 μM (human PKK mRNA [1]; [7]): 91%
IC50 (human PKK mRNA [1]; [8]): 1200 nM
% inhibition (human PKK mRNA [2]; Table 7, HepaRG cells, electroporation with 5,000 nM antisense oligonucleotide, approx. 24 hours, PKK mRNA by RT-PCR (RTS3454), relative to untreated control cells): 86%

547575 (eG*eG*eG*eA*eA*dA*d[5mC]*dT*d[5mC]*dT*dT*dT*d[5mC]*d[5mC]*dT*e[5mC]*eG*e[5mC]*e[5mC]*e[5mC]; antisense) [compound 547575]
percent inhibition of PKK at 0.19 μM (human PKK mRNA [1]; [9]): 0%
percent inhibition of PKK at 0.56 μM (human PKK mRNA [1]; [9]): 34%
percent inhibition of PKK at 1.67 μM (human PKK mRNA [1]; [9]): 82%
percent inhibition of PKK at 5.00 μM (human PKK mRNA [1]; [9]): 93%
IC50 (human PKK mRNA [1]; [10]): 1100 nM
% inhibition (human PKK mRNA [2]; [11]): 89%

547006 (e[5mC]*eG*e[5mC]*e[5mC]*eA*dT*d[5mC]*dT*dG*d[5mC]*d[5mC]*d[5mC]*dT*dG*dT*eA*e[5mC]*eA*eG*eA; antisense) [compound 547006]
percent inhibition of PKK at 0.19 μM (human PKK mRNA [1]; [12]): 0%
percent inhibition of PKK at 0.56 μM (human PKK mRNA [1]; [12]): 0%
percent inhibition of PKK at 1.67 μM (human PKK mRNA [1]; [12]): 54%
percent inhibition of PKK at 5.00 μM (human PKK mRNA [1]; [12]): 77%
IC50 (human PKK mRNA [1]; [13]): 1500 nM
% inhibition (human PKK mRNA [2]; HepaRG cells, 5,000 nM antisense oligonucleotide, 5-10-5 gapmers, Table 17): 39%

546195 (antisense eG*e[5mC]*eT*eA*eA*d[5mC]*d[5mC]*dT*dT*dA*dG*dA*d[5mC]*dA*d[5mC]*eA*eT*eT*eA*eA) [compound 546195]
percent inhibition of PKK at 0.19 μM (human PKK mRNA [1]; [12]): 34%
percent inhibition of PKK at 0.56 μM (human PKK mRNA [1]; [12]): 51%
percent inhibition of PKK at 1.67 μM (human PKK mRNA [1]; [12]): 79%
percent inhibition of PKK at 5.00 μM (human PKK mRNA [1]; [12]): 92%
IC50 (human PKK mRNA [1]; [13]): 500 nM
percent inhibition of PKK mRNA, 0.19 μM (human PKK mRNA [1]; HepaRG cells): 0%
percent inhibition of PKK mRNA, 0.56 μM (human PKK mRNA [1]; HepaRG cells): 27%
percent inhibition of PKK mRNA, 1.67 μM (human PKK mRNA [1]; HepaRG cells): 91%
percent inhibition of PKK mRNA, 5.00 μM (human PKK mRNA [1]; HepaRG cells): 94%
IC50 (human PKK mRNA [1]; HepaRG cells, 0.19-5.00 μM): 900 nM
% inhibition (human PKK mRNA [2]; HepaRG cells, electroporation with 5,000 nM antisense oligonucleotide, approximately 24 hours, PKK mRNA by RT-PCR (RTS3454), relative to untreated control cells, Table 6 experiment): 83%

547454 (antisense eT*eA*eT*e[5mC]*eA*dT*dG*dA*dT*dT*d[5mC]*d[5mC]*d[5mC]*dT*dT*e[5mC]*eT*eG*eA*eG) [compound 547454]
percent inhibition of PKK at 0.19 μM (human PKK mRNA [1]; [14]): 19%
percent inhibition of PKK at 0.56 μM (human PKK mRNA [1]; [14]): 40%
percent inhibition of PKK at 1.67 μM (human PKK mRNA [1]; [14]): 58%
percent inhibition of PKK at 5.00 μM (human PKK mRNA [1]; [14]): 92%
IC50 (human PKK mRNA [1]; [15]): 900 nM
% inhibition (human PKK mRNA [2]; Table 9 experiment, HepaRG cells, 20,000 cells per well, electroporation with 5,000 nM antisense oligonucleotide, approx. 24 hours, PKK mRNA by RT-PCR (RTS3454), relative to untreated control cells): 92%
% inhibition (human PKK mRNA [2]; Table 10 experiment, HepaRG cells, 20,000 cells per well, electroporation with 5,000 nM antisense oligonucleotide, approx. 24 hours, PKK mRNA by RT-PCR (RTS3454), relative to untreated control cells): 78%

548744 (DNA eT*e[5mC]*eA*e[5mC]*dT*dG*dT*dA*d[5mC]*dT*dA*dG*dT*eT*eT*e[5mC]*e[5mC]; antisense) [compound 548744]
percent inhibition of PKK at 0.19 μM (human PKK mRNA [1]; [12]): 14%
percent inhibition of PKK at 0.56 μM (human PKK mRNA [1]; [12]): 35%
percent inhibition of PKK at 1.67 μM (human PKK mRNA [1]; [12]): 63%
percent inhibition of PKK at 5.00 μM (human PKK mRNA [1]; [12]): 83%
IC50 (human PKK mRNA [1]; [13]): 1000 nM
% inhibition (human PKK mRNA [2]; human PKK mRNA, HepaRG cells, 5,000 nM antisense oligonucleotide, Table 18): 83%

546846 (e[5mC]*eT*eG*eT*e[5mC]*d[5mC]*dT*dA*dT*dA*dT*d[5mC]*dA*d[5mC]*dT*eG*eT*e[5mC]*e[5mC]*eT; antisense) [compound 546846]
percent inhibition of PKK at 0.19 0μM (human PKK mRNA [1]; [4]): 26%
percent inhibition of PKK at 0.56 0μM (human PKK mRNA [1]; [4]): 49%
percent inhibition of PKK at 1.67 1μM (human PKK mRNA [1]; [4]): 85%
IC50 (human PKK mRNA [1]; [5]): 500 nM
percent inhibition of PKK at 0.19 μM (human PKK mRNA [1]; [16]): 36%
percent inhibition of PKK at 0.56 μM (human PKK mRNA [1]; [16]): 45%
percent inhibition of PKK at 1.67 μM (human PKK mRNA [1]; [16]): 71%
percent inhibition of PKK at 5.00 μM (human PKK mRNA [1]; [16]): 82%
IC50 (human PKK mRNA [1]; Table 34, PKK mRNA, HepaRG, electroporation, ~16 h): 500 nM
% inhibition (human PKK mRNA [2]; [11]): 95%

546877 (e[5mC]*eA*e[5mC]*eT*eG*dT*d[5mC]*d[5mC]*dT*dA*dT*dA*dT*d[5mC]*dA*e[5mC]*eT*eG*eT*eA; antisense) [compound 546877]
percent inhibition of PKK at 0.19 μM (human PKK mRNA [1]; [9]): 0%
percent inhibition of PKK at 0.56 μM (human PKK mRNA [1]; [9]): 19%
percent inhibition of PKK at 1.67 μM (human PKK mRNA [1]; [9]): 75%
percent inhibition of PKK at 5.00 μM (human PKK mRNA [1]; [9]): 80%
IC50 (human PKK mRNA [1]; [10]): 1300 nM
% inhibition (human PKK mRNA [2]; [6]): 88%

547293 (antisense e[5mC]*eA*eT*e[5mC]*eT*dG*dG*d[5mC]*dA*dG*dT*dA*dT*dT*dG*eG*eG*e[5mC]*eA*eT) [compound 547293]
percent inhibition of PKK at 0.19 μM (human PKK mRNA [1]; [14]): 53%
percent inhibition of PKK at 0.56 μM (human PKK mRNA [1]; [14]): 57%
percent inhibition of PKK at 1.67 μM (human PKK mRNA [1]; [14]): 80%
percent inhibition of PKK at 5.00 μM (human PKK mRNA [1]; [14]): 86%
IC50 (human PKK mRNA [1]; [15]): 200 nM
percent inhibition of PKK mRNA, 0.19 μM (human PKK mRNA [1]; HepaRG cells): 0%
percent inhibition of PKK mRNA, 0.56 μM (human PKK mRNA [1]; HepaRG cells): 45%
percent inhibition of PKK mRNA, 1.67 μM (human PKK mRNA [1]; HepaRG cells): 65%
percent inhibition of PKK mRNA, 5.00 μM (human PKK mRNA [1]; HepaRG cells): 70%
IC50 (human PKK mRNA [1]; HepaRG cells, 0.19-5.00 μM): 1300 nM
% inhibition (human PKK mRNA [2]; HepaRG cells, electroporation with 5,000 nM antisense oligonucleotide, approximately 24 hours, PKK mRNA by RT-PCR (RTS3454), relative to untreated control cells, Table 5 experiment): 92%

547632 (antisense eT*e[5mC]*eA*e[5mC]*eT*dG*dT*d[5mC]*d[5mC]*dT*dA*dT*dA*dT*d[5mC]*eA*e[5mC]*eT*e[5mC]*eT) [compound 547632]
percent inhibition of PKK at 0.19 μM (human PKK mRNA [1]; [7]): 44%
percent inhibition of PKK at 0.56 μM (human PKK mRNA [1]; [7]): 47%
percent inhibition of PKK at 1.67 μM (human PKK mRNA [1]; [7]): 81%
percent inhibition of PKK at 5.00 μM (human PKK mRNA [1]; [7]): 97%
IC50 (human PKK mRNA [1]; [8]): 600 nM
percent inhibition of PKK mRNA, 0.19 μM (human PKK mRNA [1]; HepaRG cells): 0%
percent inhibition of PKK mRNA, 0.56 μM (human PKK mRNA [1]; HepaRG cells): 0%
percent inhibition of PKK mRNA, 1.67 μM (human PKK mRNA [1]; HepaRG cells): 63%
percent inhibition of PKK mRNA, 5.00 μM (human PKK mRNA [1]; HepaRG cells): 91%
IC50 (human PKK mRNA [1]; HepaRG cells, 0.19-5.00 μM): 1600 nM
% inhibition (human PKK mRNA [2]; human PKK mRNA, HepaRG cells, 5-10-5 motif oligonucleotides targeting SEQ ID NO: 1 and 10): 87%
